The target in one series is CYP3A4 (Homo sapiens, UniProt P08684). Kind of series: Inhibition of CYP3A4 supersome-mediated EET biosynthesis. The class given is biochemical. As to conditions: CYP3A4 supersomes, read-out: IC50 for inhibition of EET synthesis. Here is the method: (§1) Poziotinib was purchased from a commercial source (Selleck Chem catalog number S7358). Assays were conducted using standard techniques that are known in the literature including those described in US Patent Publication U.S. 2015/0342909.
(§2) Poziotinib was tested for inhibition of proliferation of the MCF-7 (HER2 negative) cell line in complete media. The IC50 for inhibition of growth was determined to be approximately 3 μM (FIG. 1). Poziotinib was tested for inhibition of CYP2C8 supersome-mediated EET biosynthesis. The IC50 for inhibition of EET synthesis was determined to be approximately 10 μM (FIG. 2). Poziotinib was tested for inhibition of CYP3A4 supersome-mediated EET biosynthesis. The IC50 for inhibition of EET synthesis was determined to be approximately 10 µM (FIG. 2).

A further series deals with T1, CYP2C8 (Homo sapiens, UniProt P10632).
T1 sequence (P10632 1-490): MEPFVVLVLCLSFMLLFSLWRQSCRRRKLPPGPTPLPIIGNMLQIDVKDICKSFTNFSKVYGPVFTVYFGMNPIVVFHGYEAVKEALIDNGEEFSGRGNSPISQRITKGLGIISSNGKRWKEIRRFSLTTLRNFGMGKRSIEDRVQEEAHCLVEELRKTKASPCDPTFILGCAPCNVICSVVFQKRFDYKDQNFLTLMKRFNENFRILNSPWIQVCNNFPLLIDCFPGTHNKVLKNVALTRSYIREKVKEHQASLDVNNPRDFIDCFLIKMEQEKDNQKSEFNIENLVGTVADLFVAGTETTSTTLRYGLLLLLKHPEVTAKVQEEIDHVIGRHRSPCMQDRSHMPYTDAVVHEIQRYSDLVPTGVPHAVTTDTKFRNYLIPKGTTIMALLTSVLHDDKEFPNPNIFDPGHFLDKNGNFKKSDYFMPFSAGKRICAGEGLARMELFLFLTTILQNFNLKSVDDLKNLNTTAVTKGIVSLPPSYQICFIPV
Kind of series: Inhibition of CYP2C8 supersome-mediated EET biosynthesis. Format: biochemical. To be noted: FIG. 2, read-out: IC50 for inhibition of EET synthesis. Here is the method:
as §1, §2

For another series, the target named is EGFR type I kinase (Homo sapiens, UniProt P00533). To be noted: as described in WO2008/150118; cited from earlier work.
Series [1] concerns various cancer cell lines including colon/rectal, skin, lung and the breast cancer cell line SK-BR3. To be noted: lung and SK-BR3 (overexpresses HER2) cell lines, WO2008/150118; cited from earlier work.
Another series deals with MCF7. Put plainly: Measurement of OCR and ECAR (XF Extracellular Flux Analyzer). Format: cell-based. To be noted: MCF7, poziotinib 40 and 80 uM, endpoint A+270 minutes; P=0.0286 (40 uM), P=0.0001 (80 uM); normalized to 6th measurement DMSO control, n=5, FIG. 4. Here is the method: Cells were maintained in growth medium consisting of 10% FBS at 37° C. with 5% CO2 and seeded at 30,000 cells per well in XF24-well cell culture microplates (Seahorse Bioscience, North Billirica, Ma.). Concentrated stocks of poziotinib were prepared in DMSO. Poziotinib was diluted to 10× working concentration in XF assay medium (a non-buffered medium including 2 mM L-glutamine but no sodium bicarbonate (buffering agent), glucose, or sodium pyruvate). Assays were performed in the XF Extracellular Flux Analyzer (Seahorse Bioscience), which measures uptake and excretion of metabolic end products in real time. Oxygen consumption rate (OCR) and extracellular acidification rate (ECAR) were measured using an XF Assay Kit. OCR is reported in pmoles/minute and ECAR in mpH/minute. Before analysis, the cells were switched from culture medium to XF assay medium. After baseline measurements, 75 μl of poziotinib prepared in assay medium was injected into each well to reach final working concentrations. After addition of poziotinib, OCR and ECAR were measured at 18-minute intervals. There were 5 replicates performed for each data point.
OCR was reduced by poziotinib vs. DMSO and was significant at the endpoint of A+270 minutes. […] Results are normalized to the 6th measurement DMSO control and expressed as mean ±S.D. (n=5) (FIG. 4).

Series [2] relates to MCF-7 (HER2 negative) cell line. Kind of series: Inhibition of proliferation of MCF-7 cell line in complete media. The class given is cell-based. As to conditions: Homo sapiens, MCF7, FIG. 1, read-out: IC50 for inhibition of growth. As to the method: as §1, §2

The structures appear in SMILES notation.

The text below walks through data of US20180333415A1, “THERAPEUTIC METHODS” (REGENTS OF THE UNIVERSITY OF MINNESOTA, priority 2017, published 2018).

Sequence of CYP3A4 (P08684 whole entry): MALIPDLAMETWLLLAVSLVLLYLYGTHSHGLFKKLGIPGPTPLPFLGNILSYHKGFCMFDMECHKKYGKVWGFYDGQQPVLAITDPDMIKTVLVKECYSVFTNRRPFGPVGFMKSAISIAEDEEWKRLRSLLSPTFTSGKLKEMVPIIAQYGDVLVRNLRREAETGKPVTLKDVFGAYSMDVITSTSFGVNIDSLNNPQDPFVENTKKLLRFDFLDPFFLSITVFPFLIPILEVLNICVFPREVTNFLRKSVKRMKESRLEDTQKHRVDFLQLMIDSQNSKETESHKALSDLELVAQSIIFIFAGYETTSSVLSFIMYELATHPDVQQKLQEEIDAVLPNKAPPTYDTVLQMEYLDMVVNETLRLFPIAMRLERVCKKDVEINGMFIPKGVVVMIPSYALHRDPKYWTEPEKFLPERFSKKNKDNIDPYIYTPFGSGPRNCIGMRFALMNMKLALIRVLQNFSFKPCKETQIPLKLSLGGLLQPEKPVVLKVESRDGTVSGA
Sequence of EGFR type I kinase (P00533 25-1210): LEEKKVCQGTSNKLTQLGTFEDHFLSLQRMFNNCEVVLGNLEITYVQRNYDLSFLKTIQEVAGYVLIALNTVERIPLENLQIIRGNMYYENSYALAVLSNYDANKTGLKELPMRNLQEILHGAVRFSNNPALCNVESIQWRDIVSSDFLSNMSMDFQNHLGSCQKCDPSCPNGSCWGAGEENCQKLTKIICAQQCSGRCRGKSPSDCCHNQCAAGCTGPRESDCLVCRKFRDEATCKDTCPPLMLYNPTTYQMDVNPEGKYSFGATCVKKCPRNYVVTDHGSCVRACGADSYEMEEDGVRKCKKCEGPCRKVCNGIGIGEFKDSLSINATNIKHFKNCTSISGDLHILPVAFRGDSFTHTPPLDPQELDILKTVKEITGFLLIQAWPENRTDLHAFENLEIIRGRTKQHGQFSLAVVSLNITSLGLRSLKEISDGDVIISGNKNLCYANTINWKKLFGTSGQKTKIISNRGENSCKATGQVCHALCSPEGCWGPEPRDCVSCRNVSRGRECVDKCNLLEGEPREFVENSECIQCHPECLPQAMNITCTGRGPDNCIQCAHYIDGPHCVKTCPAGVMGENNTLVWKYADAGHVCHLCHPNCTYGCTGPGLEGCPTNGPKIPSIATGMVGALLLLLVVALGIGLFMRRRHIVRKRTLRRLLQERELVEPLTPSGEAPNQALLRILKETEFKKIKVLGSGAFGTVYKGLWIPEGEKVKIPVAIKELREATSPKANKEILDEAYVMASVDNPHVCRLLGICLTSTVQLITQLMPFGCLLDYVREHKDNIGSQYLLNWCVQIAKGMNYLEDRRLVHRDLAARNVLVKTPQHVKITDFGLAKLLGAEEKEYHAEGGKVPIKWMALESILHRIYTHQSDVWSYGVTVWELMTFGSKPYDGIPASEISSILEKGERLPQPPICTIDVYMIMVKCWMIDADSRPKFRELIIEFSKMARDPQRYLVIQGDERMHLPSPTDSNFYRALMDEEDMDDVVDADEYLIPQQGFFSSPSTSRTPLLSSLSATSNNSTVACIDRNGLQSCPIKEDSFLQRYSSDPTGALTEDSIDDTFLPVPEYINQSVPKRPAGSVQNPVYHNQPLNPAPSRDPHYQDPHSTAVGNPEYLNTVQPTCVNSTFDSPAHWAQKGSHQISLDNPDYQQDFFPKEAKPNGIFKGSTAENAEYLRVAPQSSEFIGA

With `C=CC(=O)N1CCC(Oc2cc3c(Nc4ccc(Cl)c(Cl)c4F)ncnc3cc2OC)CC1` [Poziotinib, 1-(4-((4-((3,4-dichloro-2-fluorophenyl)amino)-7-methoxyquinazolin-6-yl)oxy)piperidin-1-yl)prop-2-en-1-one], the IC50 – broadly, the concentration that inhibits the measured activity by half – at CYP3A4 was about 10 µM; on CYP2C8, about 10 µM; in series [2], about 3 µM. The “Inhibition of EGFR type I kinase” value at EGFR type I kinase is “inhibit EGFR type I kinase”. Besides, in series [1], the “Inhibition of cell growth” value was “inhibit cell growth”. Besides, the “Oxygen consumption rate (OCR) vs. DMSO” value with MCF7 was “reduced”.
